Results as given in paper PMC11576293, “New series of 4,6-diaryl pyrimidines: facile synthesis and antiproliferative activity as dual EGFR/VEGFR-2 inhibitors” (Frontiers in Chemistry, 2024).
Where “and” joins values, the source holds several entries; their conditions need not be identical. Identical values can stand only once.

Assays:
[1] = Cell viability assay (MTT) on normal cells; format: cell-based; conditions: human, MCF-10A normal mammary gland epithelial cells, 4 days incubation
Procedure: (§1) This experiment examines the impact of the newly developed compounds 9–29 on normal cell lines to assess their safety level. The vitality of the investigated compounds was assessed using the MCF-10 A cell line, a normal human mammary gland epithelial cell line. Following 4 days of incubation on MCF-10 A cells with each examined compound at a concentration of 50 μM, the vitality of the cells was assessed using the MTT test ([Mahmoud et al., 2022]; [Mekheimer et al., 2022]).
as §1, with “The viability” for “The vitality”, “of 9–29” for “of the investigated compounds”, “2022]). Refer to Supplementary Material A1 for more details. […]” for “2022]).”
4.2. Biological evaluation
4.2.1. Cytotoxic activity using MTT Assay and evaluation of IC50
MTT assay was carried out to study the effect of compounds on mammary epithelial cells (MCF-10A). The medium in which cells were propagated contained Dulbecco's modified Eagle's medium (DMEM)/ Ham's F-12 medium (1:1) supplemented with epidermal growth factor (20 ng/mL), hydrocortisone (500 ng/mL), insulin (10 μg/mL), 2 mM glutamine and 10% foetal calf serum.
After every 2-3 days, the cells were passaged using trypsin ethylenediamine tetra acetic acid (EDTA). The cells were seeded at a density of 10^4 cells mL-1 in flat-bottomed culture plates containing 96 wells each. After 24 h, medium was removed from the plates and the compounds in (in 0.1% DMSO) were added (in 200 μL medium to yield a final concentration of 0.1% v/v) to the wells of plates. A single compound was designated with four wells followed by incubation of plates for 96h at 37°C. After incubation, medium was removed completely from the plates followed by addition of MTT (0.4 mg/mL in medium) to each well and subsequent incubation of plates for 3h. MTT (along with the medium) was removed and DMSO (150μL) was added to each well of the culture plates, followed by vertexing and subsequent measurement of absorbance (at 540 nm) using microplate reader. The data are shown as percentage inhibition of proliferation in comparison with controls containing 0.1% DMSO. […]

[2] = tested on: four cancer cell lines (A-549, MCF-7, Panc-1, HT-29); assay: Antiproliferative assay, average over four cancer cell lines; format: cell-based; conditions: Homo sapiens; average of the four cancer cell lines; read-out: Average IC50 (GI50)
From the text: Table 2 presents the four cancer cell lines’ median inhibitory concentration (IC50) and GI50 (average IC50) values.
The IC50 values were derived from dose-response tests. The reported data are derived from at least two independent studies, each comprising three replicates per concentration. See Supplementary Material A1 for more details.

[3] = target: T1, EGFR (Homo sapiens, UniProt P00533); assay: EGFR-TK inhibitory assay; format: biochemical; conditions: read-out: EGFR inhibition IC50 ± SEM
T1 construct: amino acids 645–1186; His6 (N); made in house; host or cells: Sf-9 insect cells (baculovirus; pBlueBacHis2B / pFASTBacHTc)
T1 sequence (P00533 669-1210): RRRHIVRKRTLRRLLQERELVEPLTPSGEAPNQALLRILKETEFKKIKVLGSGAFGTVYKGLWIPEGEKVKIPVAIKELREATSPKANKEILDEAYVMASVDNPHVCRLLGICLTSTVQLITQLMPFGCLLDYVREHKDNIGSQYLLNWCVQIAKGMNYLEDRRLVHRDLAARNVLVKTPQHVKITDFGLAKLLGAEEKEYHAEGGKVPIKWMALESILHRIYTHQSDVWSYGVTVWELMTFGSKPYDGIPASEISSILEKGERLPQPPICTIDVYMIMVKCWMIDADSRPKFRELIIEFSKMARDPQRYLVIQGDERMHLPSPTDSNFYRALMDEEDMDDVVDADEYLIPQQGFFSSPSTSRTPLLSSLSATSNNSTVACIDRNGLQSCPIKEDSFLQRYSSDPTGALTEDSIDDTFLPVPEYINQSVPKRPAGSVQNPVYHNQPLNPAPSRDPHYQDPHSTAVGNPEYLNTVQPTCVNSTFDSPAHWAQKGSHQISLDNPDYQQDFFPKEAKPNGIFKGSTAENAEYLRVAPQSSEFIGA

[4] = Experimental lipophilicity by RP-TLC; format: physicochemical; conditions: for Experimental lipophilicity Co: concentration of MeOH at RM = 0, in % (unit assumed)
From the text: The RP-TLC method was used to measure the lipophilicity parameters (RMo, b, and Co) described in the experimental section. The mobile phase consisted of different proportions of water and organic modifier (MeOH). RF and RM values were obtained for each ratio of organic modifier/water system (Supplementary Table S3), and a linear regression analysis was achieved to obtain the lipophilicity chromatographic descriptors (RMo, b, and Co, see Table 6). Relative lipophilicity (RMo) describes the partitioning of the solute between pure water and nonpolar stationary phase. In contrast, the second lipophilicity parameter (Co) represents the concentration of organic modifier in the mobile phase in which the solute is equally distributed between two phases (i.e., RM = 0, and Rf = 0.5). Also, Co is known to be widely used in QSAR analysis as it embraces both the specific hydrophobic surface area of the solute and RMo. […] Finally, the slope of the regression line (b) was used as a descriptor of the specific hydrophobic surface area of the compound. In a series of structurally related compounds, b is linearly correlated with RMo, resulting in a linear relationship that is the basic feature of the chromatographic determination of lipophilicity. […] Moreover, substituents affected tested compounds’ measured lipophilicity parameter (RMo) values. Higher RMo values were found with lipophilic derivatives containing the benzyl group (14, 22, and 28), while lower RMo values were found with derivatives containing alkyl or allyl groups (19, 26, and 27). An interesting contradiction was found with experimental lipophilicity value of 28 and its congener 14, where compound 28 was found more lipophilic than its congener 14 even though it contains two methoxy groups and according to ChemDraw® and MolSoft® programs, derivative 14 should be more lipophilic while the MOE® program expects values matching our findings. […] Also, S-allyl derivatives were nearly equipotent to S-alkyl congeners as antiproliferative agents but quite different in terms of lipophilicity.

[5] = target: VEGFR-2 (Homo sapiens, UniProt P35968); assay: VEGFR-2 inhibitory assay
Chain of VEGFR-2 (P35968 20-1356): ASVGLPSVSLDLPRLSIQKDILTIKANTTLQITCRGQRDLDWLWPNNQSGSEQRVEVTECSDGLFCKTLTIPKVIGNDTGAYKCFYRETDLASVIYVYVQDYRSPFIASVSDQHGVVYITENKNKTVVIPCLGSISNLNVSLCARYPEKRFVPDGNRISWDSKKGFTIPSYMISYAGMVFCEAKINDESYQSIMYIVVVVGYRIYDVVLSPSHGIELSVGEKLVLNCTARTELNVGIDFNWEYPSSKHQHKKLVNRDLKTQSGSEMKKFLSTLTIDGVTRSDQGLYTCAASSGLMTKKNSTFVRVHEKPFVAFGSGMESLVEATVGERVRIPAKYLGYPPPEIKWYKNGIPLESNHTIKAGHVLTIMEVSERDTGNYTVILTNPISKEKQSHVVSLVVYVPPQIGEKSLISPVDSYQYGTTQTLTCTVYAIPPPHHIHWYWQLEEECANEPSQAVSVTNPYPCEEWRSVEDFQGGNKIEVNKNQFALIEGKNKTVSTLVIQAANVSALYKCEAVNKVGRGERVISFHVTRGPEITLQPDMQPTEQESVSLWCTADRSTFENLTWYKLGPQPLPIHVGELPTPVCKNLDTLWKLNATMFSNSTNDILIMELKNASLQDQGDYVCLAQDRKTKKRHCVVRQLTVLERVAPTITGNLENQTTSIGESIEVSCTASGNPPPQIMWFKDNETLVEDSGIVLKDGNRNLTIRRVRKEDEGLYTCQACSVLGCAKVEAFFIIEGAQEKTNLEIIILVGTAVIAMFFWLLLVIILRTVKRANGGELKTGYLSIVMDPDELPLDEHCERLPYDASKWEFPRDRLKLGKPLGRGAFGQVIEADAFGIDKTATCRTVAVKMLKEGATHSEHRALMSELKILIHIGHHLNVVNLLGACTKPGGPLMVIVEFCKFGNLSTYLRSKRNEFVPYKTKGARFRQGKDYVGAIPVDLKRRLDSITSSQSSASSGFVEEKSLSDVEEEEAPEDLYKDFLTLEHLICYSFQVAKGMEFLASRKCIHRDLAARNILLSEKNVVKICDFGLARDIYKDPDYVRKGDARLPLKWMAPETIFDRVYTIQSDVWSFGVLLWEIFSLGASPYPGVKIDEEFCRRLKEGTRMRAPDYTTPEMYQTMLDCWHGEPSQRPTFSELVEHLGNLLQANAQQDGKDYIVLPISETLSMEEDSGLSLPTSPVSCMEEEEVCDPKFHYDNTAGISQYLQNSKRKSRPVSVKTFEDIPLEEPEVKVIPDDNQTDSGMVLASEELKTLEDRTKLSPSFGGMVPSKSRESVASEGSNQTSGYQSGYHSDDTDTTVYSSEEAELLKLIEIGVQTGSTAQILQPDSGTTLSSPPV

## COc1ccc(-c2cc(-c3ccc(Cl)cc3)nc(SCc3ccccc3)n2)cc1 [Compound 14, 2-(Benzylthio)-4-(4-chlorophenyl)-6-(4-methoxyphenyl)pyrimidine]
[1]
  viability at 4 days, 50 µM: 90%
[2]
  IC50: 29 nM
[3]
  IC50: 90 ± 7 nM
[4]; MeOH/water mobile phase
  Experimental lipophilicity RMo: 7.024 ± 0.05913
  Experimental lipophilicity b (slope): -0.074 ± 0.00066
[4]
  Experimental lipophilicity Co: 91.3417
[5]
  IC50: 2.2 ± 0.02 nM

## COc1ccc(-c2cc(-c3cccc(OC)c3)nc(SC(C)C)n2)cc1 [Compound 19, 2-(Isopropylthio)-6-(3-methoxyphenyl)-4-(4-methoxyphenyl)pyrimidine]
[1]
  viability at 4 days, 50 µM: 90%
[2]
  IC50: 30 nM
[3]
  IC50: 83 ± 6 nM
[4]; MeOH/water mobile phase
  Experimental lipophilicity RMo: 7.02
[4]
  Experimental lipophilicity Co: 87.6579 and 91.32
[5]
  IC50: 2.7 ± 0.02 nM
